pIC50: −log10 of the molar value.

The target in one experiment is indoleamine 2, 3-dioxygenase (IDO1) (Homo sapiens, UniProt P14902). The experiment can be described thus: PBMC IDO1 assay (kynurenine via mass spectrometry). The class given is cell-based.
indoleamine 2, 3-dioxygenase (IDO1), sequence (P14902 whole entry): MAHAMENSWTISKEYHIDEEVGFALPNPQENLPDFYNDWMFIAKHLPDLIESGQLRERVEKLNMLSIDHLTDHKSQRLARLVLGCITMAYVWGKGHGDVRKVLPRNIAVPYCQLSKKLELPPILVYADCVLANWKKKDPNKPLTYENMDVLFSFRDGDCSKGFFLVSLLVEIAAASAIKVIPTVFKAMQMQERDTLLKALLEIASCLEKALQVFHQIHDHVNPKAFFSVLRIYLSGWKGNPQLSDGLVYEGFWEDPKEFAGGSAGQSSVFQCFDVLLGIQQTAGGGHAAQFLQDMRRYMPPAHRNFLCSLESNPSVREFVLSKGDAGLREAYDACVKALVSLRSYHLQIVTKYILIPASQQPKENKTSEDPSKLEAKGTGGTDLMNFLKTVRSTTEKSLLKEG
Settings: not given
As for the experimental part:
Compounds of the present invention were tested via high-throughput cellular assays utilizing detection of kynurenine via mass spectrometry and cytotoxicity as end-points. For the mass spectrometry and cytotoxicity assays, human peripheral blood mononuclear cells (PBMC) (PB003F; AllCells®, Alameda, Calif.) were stimulated with human interferon-γ (IFN-γ) (Sigma-Aldrich Corporation, St. Louis, Mo.) and lipopolysaccharide from Salmonella minnesota (LPS) (Invivogen, San Diego, Calif.) to induce the expression of indoleamine 2, 3-dioxygenase (IDO1). Compounds with IDO1 inhibitory properties decreased the amount of kynurenine produced by the cells via the tryptophan catabolic pathway. Cellular toxicity due to the effect of compound treatment was measured using CellTiter-Glo® reagent (CTG) (Promega Corporation, Madison, Wis.), which is based on luminescent detection of ATP, an indicator of metabolically active cells.
In preparation for the assays, test compounds were serially diluted 3-fold in DMSO from a typical top concentration of 5 mM and plated at 0.5 μL in 384-well, polystyrene, clear bottom, tissue culture treated plates with lids (Greiner Bio-One, Kremsmünster, Austria) to generate 11-point dose response curves. Low control wells (0% kynurenine or 100% cytotoxicity) contained either 0.5 μL of DMSO in the presence of unstimulated (-IFN-γ/-LPS) PBMCs for the mass spectrometry assay or 0.5 μL of DMSO in the absence of cells for the cytotoxicity assay, and high control wells (100% kynurenine or 0% cytotoxicity) contained 0.5 μL of DMSO in the presence of stimulated (+IFN-γ/+LPS) PBMCs for both the mass spectrometry and cytotoxicity assays.
Frozen stocks of PBMCs were washed and recovered in RPMI 1640 medium (Thermo Fisher Scientific, Inc., Waltham, Mass.) supplemented with 10% v/v heat-inactivated fetal bovine serum (FBS) (Thermo Fisher Scientific, Inc., Waltham, Mass.), and 1× penicillin-streptomycin antibiotic solution (Thermo Fisher Scientific, Inc., Waltham, Mass.). The cells were diluted to 1,000,000 cells/mL in the supplemented RPMI 1640 medium. 50 μL of either the cell suspension, for the mass spectrometry assay, or medium alone, for the cytotoxicity assay, were added to the low control wells, on the previously prepared 384-well compound plates, resulting in 50,000 cells/well or 0 cells/well respectively. IFN-γ and LPS were added to the remaining cell suspension at final concentrations of 100 ng/ml and 50 ng/ml respectively, and 50 μL of the stimulated cells were added to all remaining wells on the 384-well compound plates. The plates, with lids, were then placed in a 37° C., 5% CO2 humidified incubator for 2 days.
Following incubation, the 384-well plates were removed from the incubator and allowed to equilibrate to room temperature for 30 minutes. For the cytotoxicity assay, CellTiter-Glo® was prepared according to the manufacturer's instructions, and 40 μL were added to each plate well. After a twenty minute incubation at room temperature, luminescence was read on an EnVision® Multilabel Reader (PerkinElmer Inc., Waltham, Mass.). For the mass spectrometry assay, 10 μL of supernatant from each well of the compound-treated plates were added to 40 μL of acetonitrile, containing 10 μM of an internal standard for normalization, in 384-well, polypropylene, V-bottom plates (Greiner Bio-One, Kremsmünster, Austria) to extract the organic analytes. Following centrifugation at 2000 rpm for 10 minutes, 10 μL from each well of the acetonitrile extraction plates were added to 90 μL of sterile, distilled H2O in 384-well, polypropylene, V-bottom plates for analysis of kynurenine and the internal standard on the RapidFire 300 (Agilent Technologies, Santa Clara, Calif.) and 4000 QTRAP MS (SCIEX, Framingham, Mass.). MS data were integrated using Agilent Technologies' RapidFire Integrator software, and data were normalized for analysis as a ratio of kynurenine to the internal standard. […]
`O=C(NC(c1ccncc1)C1CCN(C(=O)Oc2cccnc2)CC1)c1ccc(F)cc1` (stereo not drawn) [Example 87, pyridin-3-yl 4-{[(4-fluorophenyl)formamido](pyridin-4-yl)methyl}piperidine-1-carboxylate] showed a pIC50 of 6.20.
Regarding `O=C(N[C@H](CCCO)C1CCN(C(=O)Oc2cccnc2F)CC1)c1ccc(F)cc1` [Example 97, 2-fluoropyridin-3-yl 4-[(1R)-1-[(4-fluorophenyl)formamido]-4-hydroxybutyl]piperidine-1-carboxylate], the negative-log IC50 (pIC50) is 5.90.
`O=C(NC(c1ccncc1)C1CCN(C(=O)Oc2cccnc2F)CC1)c1ccc(F)cc1` (stereo not drawn) [Example 72, 2-fluoropyridin-3-yl 4-{[(4-fluorophenyl)formamido](pyridin-4-yl)methyl}piperidine-1-carboxylate] showed a pIC50 of 6.80.
The same measure, in the same setting: the value for `Cc1ncccc1OC(=O)N1CCC([C@H](NC(=O)c2ccc(Cl)cc2)c2ccccc2)CC1` [Example 14, 2-methylpyridin-3-yl 4-[(S)-[(4-chlorophenyl)formamido](phenyl)methyl]piperidine-1-carboxylate] was 8.60; that for `CC(C)CC(NC(=O)c1ccc(Cl)cc1)C1CCN(C(=O)Oc2cccnc2C#N)CC1` (stereo not drawn) [Example 5, 2-cyanopyridin-3-yl 4-{1-[(4-chlorophenyl)formamido]-3-methylbutyl}piperidine-1-carboxylate] was 8.80; that for `CC(C)CC(NC(=O)c1ccc(Cl)cc1)C1CCN(C(=O)Oc2cccnc2C(C)C)CC1` (stereo not drawn) [Example 34, 2-(propan-2-yl)pyridin-3-yl 4-{1-[(4-chlorophenyl)formamido]-3-methylbutyl}piperidine-1-carboxylate] was 8.20.
Same read-out and setting: to `CC(C)CC(NC(=O)c1ccc(F)cc1)C1CCN(C(=O)Oc2cccnc2F)CC1` (stereo not drawn) [Example 22, 2-fluoropyridin-3-yl 4-{1-[(4-fluorophenyl)formamido]-3-methylbutyl}piperidine-1-carboxylate] belongs 8.40.

The same experiment, now with this note: human PBMC stimulated with IFN-γ and LPS, 2 days, kynurenine by mass spectrometry; recorded as pIC50.
In the case of `COc1ccc(OC(=O)N2CCC(C(NC(=O)c3ccc(F)cc3)c3ccncc3)CC2)cn1` (stereo not drawn) [Example 99, 6-methoxpyridin-3-yl 4-{[(4-fluorophenyl)formamido](pyridin-4-yl)methyl}piperidine-1-carboxylate], the “PBMC PXC50_” value came to 5.6.

The same experiment, now with this note: human PBMC stimulated with IFN-γ and LPS, 2 days, kynurenine by mass spectrometry; recorded as pIC50; read-out: PBMC PXC50_ (converted).
Take `Cc1cccc(OC(=O)N2CCC(C(CC(C)C)NC(=O)c3ccc(F)cc3)CC2)c1F` (stereo not drawn) [Example 28, 2-fluoro-3-methylphenyl 4-{1-[(4-fluorophenyl)formamido]-3-methylbutyl}piperidine-1-carboxylate]: the IC50 was 5.01 nM.
Same read-out and setting: to `CC(C)C[C@@H](NC(=O)c1ccccc1)C1CCN(C(=O)Oc2ccccc2)CC1` [Example 25, phenyl 4-[(1R)-3-methyl-1-(phenylformamido)butyl]piperidine-1-carboxylate] belongs 5.01 nM.
The same measure, in the same setting: to `CC(C)CC(NC(=O)c1ccc(F)cc1)C1CCN(C(=O)Oc2ccc(F)cc2)CC1` (stereo not drawn) [Example 50, 4-fluorophenyl 4-{1-[(4-fluorophenyl)formamido]-3-methylbutyl}piperidine-1-carboxylate] belongs 12.6 nM; to `CC(C)C[C@@H](NC(=O)c1cccc2cn[nH]c12)C1CCN(C(=O)Oc2ccccc2)CC1` [Example 109, (R)-phenyl 4-(1-(1H-indazole-7-carboxamido)-3-methylbutyl)piperidine-1-carboxylate], 6.31 nM; to `CC(C)CC(NC(=O)c1nnc(Cl)s1)C1CCN(C(=O)Oc2ccccc2)CC1` (stereo not drawn) [Example 83, phenyl 4-{1-[(5-chloro-1,3,4-thiadiazol-2-yl)formamido]-3-methylbutyl}piperidine-1-carboxylate], 501 nM.
Consider `CC(C)OCC(NC(=O)c1ccc(F)cc1)C1CCN(C(=O)Oc2ccccc2)CC1` (stereo not drawn) [Example 82, phenyl 4-{1-[(4-fluorophenyl)formamido]-2-(propan-2-yloxy)ethyl}piperidine-1-carboxylate], for which the IC50 is 398 nM.
The same measure, in the same setting: the value for `CC(C)C[C@H](NC(=O)c1ccc(Cl)s1)C1CCN(C(=O)Oc2ccccc2)CC1` [Example 58, phenyl 4-[(1S)-1-[(5-chlorothiophen-2-yl)formamido]-3-methylbutyl]piperidine-1-carboxylate] was 39.8 nM.
Still for that read-out and setting: to `CC(C)CC(NC(=O)c1cccc2cn[nH]c12)C1CCN(C(=O)Oc2ccccc2)CC1` (stereo not drawn) [Example 110, phenyl 4-(1-(1H-indazole-7-carboxamido)-3-methylbutyl)piperidine-1-carboxylate] belongs 12.6 nM.
On the same count and under the same terms, to `CC(C)CC(NC(=O)c1ccc(F)cc1)C1CCN(C(=O)Oc2ccnc3ccccc23)CC1` (stereo not drawn) [Example 79, quinolin-4-yl 4-{1-[(4-fluorophenyl)formamido]-3-methylbutyl}piperidine-1-carboxylate] belongs 316 nM.
Turning to `O=C(NC(C1CC1)C1CCN(C(=O)Oc2ccccc2)CC1)c1ccc(F)cc1` (stereo not drawn) [Example 66, phenyl 4-{cyclopropyl[(4-fluorophenyl)formamido]methyl}piperidine-1-carboxylate], the IC50 is 100 nM.
Take `CC(C)CC(NC(=O)c1ccc(F)cc1)C1CCN(C(=O)Oc2cccc(F)c2C#N)CC1` (stereo not drawn) [Example 12, 2-cyano-3-fluorophenyl 4-{1-[(4-fluorophenyl)formamido]-3-methylbutyl}piperidine-1-carboxylate]: the IC50 was 2.51 nM.
Still for that read-out and setting: the value for `CC(C)CC(NC(=O)c1ccc(F)cc1)C1CCN(C(=O)Oc2ccncc2F)CC1` (stereo not drawn) [Example 47, 3-fluoropyridin-4-yl 4-{1-[(4-fluorophenyl)formamido]-3-methylbutyl}piperidine-1-carboxylate] was 10 nM; that for `O=C(NC(c1ccncc1)C1CCN(C(=O)Oc2ccccc2)CC1)c1ccc(F)cc1` (stereo not drawn) [Example 65, phenyl 4-{[(4-fluorophenyl)formamido](pyridin-4-yl)methyl}piperidine-1-carboxylate] was 100 nM.
Same read-out and setting: to `C[C@H](NC(=O)c1ccc(Cl)s1)C1CCN(C(=O)Oc2ccccc2)CC1` [Example 95, phenyl 4-[(1S)-1-[(5-chlorothiophen-2-yl)formamido]ethyl]piperidine-1-carboxylate] belongs 1000 nM; to `Cc1cnccc1OC(=O)N1CCC(C(CC(C)C)NC(=O)c2ccc(Cl)cc2)CC1` (stereo not drawn) [Example 29, 3-methylpyridin-4-yl 4-{1-[(4-chlorophenyl)formamido]-3-methylbutyl}piperidine-1-carboxylate], 5.01 nM; to `O=C(NC(c1ccccc1)C1CCN(C(=O)Oc2ccccc2)CC1)c1ccc(Cl)c(F)c1` (stereo not drawn) [Example 53, phenyl 4-{[(4-chloro-3-fluorophenyl)formamido](phenyl)methyl}piperidine-1-carboxylate], 20 nM.
Consider `Cc1nccc(OC(=O)N2CCC(C(CC(C)C)NC(=O)c3ccc(F)cc3)CC2)c1F` (stereo not drawn) [Example 51, 3-fluoro-2-methylpyridin-4-yl 4-{1-[(4-fluorophenyl)formamido]-3-methylbutyl}piperidine-1-carboxylate], for which the IC50 is 12.6 nM.
On the same count and under the same terms, to `CC(C)C[C@H](NC(=O)c1ccc(F)cc1)C1CCN(C(=O)Oc2ccccc2)CC1` [Example 69, phenyl 4-[(1S)-1-[(4-fluorophenyl)formamido]-3-methylbutyl]piperidine-1-carboxylate] belongs 126 nM.
Same read-out and setting: the value for `CC(C)C[C@@H](NC(=O)c1ccc(F)cc1)C1CCN(C(=O)Oc2ccccc2)CC1` [Example 27, phenyl 4-[(1R)-1-[(4-fluorophenyl)formamido]-3-methylbutyl]piperidine-1-carboxylate] was 5.01 nM.

As usually defined, the pIC50 is the IC50 on a negative log10 scale, so that one unit is a factor of ten. A higher pIC50 goes with a small IC50.

The record behind these values is patent US10927078B2, “Modulators of indoleamine 2,3-dioxygenase” (GLAXOSMITHKLINE INTELLECTUAL PROPERTY DEVELOPMENT LIMITED, priority 2017, dated 2021).
